Laboratory results from ChEMBL document CHEMBL1129809, “N-linked glycoside/glucuronide conjugates of retinoids: acitretin” (1997).

Experiments:
Assay type in all cases: functional, Homo sapiens
MCF7 [1] = experiment: Antiproliferative activity on MCF-7 Cell Growth was determined by measuring [3H]thymidine incorporation at the concentration of 0.1 nM
MCF7 [2] = experiment: Antiproliferative activity on MCF-7 Cell Growth was determined by measuring [3H]thymidine incorporation at the concentration of 10 nM
MCF7 [3] = experiment: Antiproliferative activity on MCF-7 Cell Growth was determined by measuring [3H]thymidine incorporation at the concentration of 1 uM

Structure (SMILES) | Control (MCF7 [1]) | Control (MCF7 [2]) | Control (MCF7 [3])
COc1cc(C)c(/C=C/C(C)=C/C=C/C(C)=C/C(=O)NC2OC(CO)C(O)C(O)C2O)c(C)c1C (centres undefined) | >50% | >100% | >100%
COc1cc(C)c(/C=C/C(C)=C/C=C/C(C)=C/C(=O)NC2OC(C(=O)O)C(O)C(O)C2O)c(C)c1C (centres undefined) | <50% | >50% | <50%
COc1cc(C)c(/C=C/C(C)=C/C=C/C(C)=C/C(=O)O)c(C)c1C [ACITRETIN] | >50% | >50% | <50%
